Test system: AMPK
Assay: AMPK activation (pAMPK Western blotting) in muscle cells
Assay type: cell-based
Conditions: 1 hour, vesicles 0, 0.1, 1, 10 μg/ml, metformin 10 μg/ml
Procedure: Therefore, an experiment was performed in the following manner to evaluate the effect of Lactobacillus rhamnosus-derived vesicles (MDH-003) on cellular aging through AMPK activation within cells. That is, to evaluate AMPK activity according to the concentration of Lactobacillus rhamnosus-derived vesicles in muscle cells, cells were treated with Lactobacillus rhamnosus-derived vesicles at concentrations of 0, 0.1, 1, and 10 μg/ml for 1 hour. As a control group, metformin, which suppresses aging, was used at a concentration of 10 μg/ml. After treating the cells with the drug, the difference in the amount of pAMPK, which is an important indicator in AMPK signaling, was measured by Western blotting.

CN(C)C(=N)N=C(N)N [metformin]
phosphorylation of AMPK (pAMPK): enhanced

From US20240252560A1, “LACTOBACILLUS RHAMNOSUS-DERIVED VESICLE AND USES THEREOF” (MD HEALTHCARE INC., priority 2021, published 2024)
